From US20250222146A1, “Radiopharmaceuticals Targeting Somatostatin Receptor 2 and Uses Thereof” (RayzeBio, Inc., priority 2023, published 2025) come the findings set out here.

For orientation: Ki means a dissociation constant, usually derived from enzyme kinetics or from competition with a known ligand.

Numbered stars: 1 amine (or outer) side, 2 acyl side, 3 side chain; on linkers, the order of the positions; unused ones are H or OH. Square brackets hold non-standard residues; d marks the D form. Side chains are listed from the residue outwards. Peptide text beside a SMILES is read from it. * marks the point of attachment. DOTA(Lu)NH(CH2)6NHCOCH2 = O=C(CN1CCN2CCN3CCN(CC1)CC(=O)[O][Lu]([O]C(=O)C2)[O]C(=O)C3)NCCCCCCNC(=O)C*; DOTA(Lu) = O=C1CN2CCN3CCN(CC(=O)*)CCN(CC2)CC(=O)[O][Lu]([O]1)[O]C(=O)C3; Ala(piperidin-4-yl) = O=C([C@H](CC1CCN([*:3])CC1)N[*:1])[*:2]; dTrp(βS-Me) = C[C@@H](c1c[nH]c2ccccc12)[C@@H](N)C(=O)O; dTrp(6-Cl) = N[C@H](Cc1c[nH]c2cc(Cl)ccc12)C(=O)O; Phe(3-OMe) = COc1cccc(C[C@H](N)C(=O)O)c1; 4Pal = N[C@@H](Cc1ccncc1)C(=O)O; Cha = N[C@@H](CC1CCCCC1)C(=O)O; Lys(Me) = CNCCCC[C@H](N)C(=O)O; NMehCys = CN[C@@H](CCS)C(=O)O; NMeK = CN[C@@H](CCCCN)C(=O)O; NMeDap = CN[C@@H](CN)C(=O)O; Ahx = NCCCCCC(=O)O

The assay has as its target SSTR2 (Homo sapiens, UniProt P30874). Description: SSTR binding affinity by radioligand binding competition assay ([125I]-Tyr11-Somatostatin, membrane extracts). As to conditions: radioligand competition, [125I]-Tyr11-Somatostatin 0.1 nM, membrane extracts; Ki from IC50 by Cheng Prusoff; read-out: SSTR2 Ki. (In general: Loss of bound radioactivity is the signal in a displacement assay; it reports binding, not function.)

SSTR2, sequence (P30874 whole entry): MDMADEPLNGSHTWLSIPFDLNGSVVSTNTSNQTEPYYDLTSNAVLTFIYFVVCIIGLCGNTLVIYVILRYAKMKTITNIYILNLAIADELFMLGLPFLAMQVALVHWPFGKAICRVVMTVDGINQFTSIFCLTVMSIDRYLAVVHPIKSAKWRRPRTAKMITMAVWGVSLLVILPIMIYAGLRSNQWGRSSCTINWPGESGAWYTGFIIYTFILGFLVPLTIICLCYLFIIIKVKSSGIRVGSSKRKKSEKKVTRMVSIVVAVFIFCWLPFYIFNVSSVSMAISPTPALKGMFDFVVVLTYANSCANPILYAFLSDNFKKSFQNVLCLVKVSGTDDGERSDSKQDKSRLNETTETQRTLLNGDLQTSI

As to `C[C@@H](O)[C@@H]1NC(=O)[C@H](CC2CCNCC2)NC(=O)[C@@H]([C@@H](C)c2c[nH]c3ccccc23)NC(=O)[C@H](Cc2ccc(O)cc2)NC(=O)[C@H](CNC(=O)[C@H](CC(=O)O)NC(=O)CCCCCNC(=O)CN2CCN3CCN4CCN(CC2)CC(=O)[O][Lu]([O]C(=O)C3)[O]C(=O)C4)N(C)C(=O)[C@H](Cc2ccccc2)NC1=O` [RB-0006158] (cyclo(F[NMeDap]([Asp-Ahx-DOTA(Lu)])Y[dTrp(βS-Me)][Ala(piperidin-4-yl)]T)), the Ki lay in the range of 1 to 3.33 nM.

Regarding `C[C@@H](O)[C@@H]1NC(=O)[C@H](CC2CCNCC2)NC(=O)[C@@H]([C@@H](C)c2c[nH]c3ccccc23)NC(=O)[C@H](Cc2ccc(O)cc2)NC(=O)[C@H](CNC(=O)[C@H](CC(=O)O)NC(=O)CN2CCN3CCN4CCN(CC2)CC(=O)[O][Lu]([O]C(=O)C3)[O]C(=O)C4)N(C)C(=O)[C@H](Cc2ccccc2)NC1=O` [RB-0006160] (cyclo(F[NMeDap]([Asp-DOTA(Lu)])Y[dTrp(βS-Me)][Ala(piperidin-4-yl)]T)), the Ki fell in the range of 10 to 33.3 nM.

For `C[C@@H](O)[C@@H]1NC(=O)[C@H](CC2CCNCC2)NC(=O)[C@@H]([C@@H](C)c2c[nH]c3ccccc23)NC(=O)[C@H](Cc2ccc(O)cc2)NC(=O)[C@H](CCCCNC(=O)CN2CCN3CCN4CCN(CC2)CC(=O)[O][Lu]([O]C(=O)C3)[O]C(=O)C4)N(C)C(=O)[C@H](CC2CCCCC2)NC1=O` [RB-0006162] (cyclo([Cha][NMeK](DOTA(Lu))Y[dTrp(βS-Me)][Ala(piperidin-4-yl)]T)), the Ki lay in the range of 1 to 3.33 nM.

`C[C@@H](O)[C@@H]1NC(=O)[C@H](CC2CCNCC2)NC(=O)[C@@H]([C@@H](C)c2c[nH]c3ccccc23)NC(=O)[C@H](Cc2ccc(O)cc2)NC(=O)[C@H](CCCCNC(=O)CN2CCN3CCN4CCN(CC2)CC(=O)[O][Lu]([O]C(=O)C3)[O]C(=O)C4)N(C)C(=O)[C@H](CO)NC1=O` [RB-0006166] (cyclo([NMeK](DOTA(Lu))Y[dTrp(βS-Me)][Ala(piperidin-4-yl)]TS)): the Ki lay within 33.3 to 100 nM.

Regarding `C[C@@H](O)[C@@H]1NC(=O)[C@H](CC2CCNCC2)NC(=O)[C@@H]([C@@H](C)c2c[nH]c3ccccc23)NC(=O)[C@H](Cc2ccc(O)cc2)NC(=O)[C@H](CCCCNC(=O)CN2CCN3CCN4CCN(CC2)CC(=O)[O][Lu]([O]C(=O)C3)[O]C(=O)C4)N(C)C(=O)[C@H](Cc2ccncc2)NC1=O` [RB-0006170] (cyclo([4Pal][NMeK](DOTA(Lu))Y[dTrp(βS-Me)][Ala(piperidin-4-yl)]T)), the Ki fell in the range of 3.33 to 10 nM.

On to `CNCCCC[C@@H]1NC(=O)[C@@H]([C@@H](C)c2c[nH]c3ccccc23)NC(=O)[C@H](Cc2ccc(O)cc2)NC(=O)[C@H](CCCCNC(=O)CN2CCN3CCN4CCN(CC2)CC(=O)[O][Lu]([O]C(=O)C3)[O]C(=O)C4)N(C)C(=O)[C@H](Cc2ccccc2)NC(=O)[C@H]([C@@H](C)O)NC1=O` [RB-0006174] (cyclo(F[NMeK](DOTA(Lu))Y[dTrp(βS-Me)][Lys(Me)]T)), for which the Ki was less than 1 nM.

As to `C[C@@H](O)[C@@H]1NC(=O)[C@H](CC2CCNCC2)NC(=O)[C@@H](Cc2c[nH]c3cc(Cl)ccc23)NC(=O)[C@H](Cc2ccc(O)cc2)NC(=O)[C@H](CCSCC(=O)NCCCCCCNC(=O)CN2CCN3CCN4CCN(CC2)CC(=O)[O][Lu]([O]C(=O)C3)[O]C(=O)C4)N(C)C(=O)[C@H](Cc2ccccc2)NC1=O` [RB-0006189] (cyclo(F[NMehCys](DOTA(Lu)NH(CH2)6NHCOCH2)Y[dTrp(6-Cl)][Ala(piperidin-4-yl)]T)), the Ki was in the range of 1 to 3.33 nM.

For the compound `COc1cccc(C[C@@H]2NC(=O)[C@H](CCCCNC(=O)CN3CCN4CCN5CCN(CC3)CC(=O)[O][Lu]([O]C(=O)C4)[O]C(=O)C5)N(C)C(=O)[C@H](Cc3ccccc3)NC(=O)[C@H]([C@@H](C)O)NC(=O)[C@H](CC3CCNCC3)NC(=O)[C@@H]([C@@H](C)c3c[nH]c4ccccc34)NC2=O)c1` [RB-0006209] (cyclo(F[NMeK](DOTA(Lu))[Phe(3-OMe)][dTrp(βS-Me)][Ala(piperidin-4-yl)]T)), the Ki is 1 to 3.33 nM.
